Assay results as given in patent publication US8829193B2, “PIM kinase inhibitors and methods of their use” (Novartis AG, priority 2008, dated 2014).

What was measured:
Pim1 kinase = Pim1 kinase (Homo sapiens (Human), UniProt P11309); assay: Pim1 ATP depletion assay; type: biochemical; conditions: 20 μM ATP, 40 μM BAD peptide, 2.5 nM PIM1
Procedure: (§1) The activity of PIM1 is measured using a luciferase-luciferin based ATP detection reagent to quantify ATP depletion resulting from kinase-catalyzed phosphoryl transfer to a peptide substrate. Compounds to be tested are dissolved in 100% DMSO and directly distributed into white 384-well plates at 0.5 μl per well. […] After 15 minutes, 10 μl of 40 μM ATP in assay buffer is added. Final assay concentrations are 2.5 nM PIM1, 20 μM ATP, 40 μM BAD peptide and 2.5% DMSO. The reaction is performed until approximately 50% of the ATP is depleted, then stopped with the addition of 20 μl KinaseGlo Plus (Promega Corporation) solution. The stopped reaction is incubated for 10 minutes and the remaining ATP detected via luminescence on the Victor2 (Perkin Elmer).

Pim2 kinase = Pim2 kinase (Homo sapiens (Human), UniProt Q9P1W9); assay: Pim2 ATP depletion assay; type: biochemical; conditions: 4 μM ATP, 10 μM BAD peptide, 5 nM PIM2
Sequence of Pim2 kinase (Q9P1W9 whole entry): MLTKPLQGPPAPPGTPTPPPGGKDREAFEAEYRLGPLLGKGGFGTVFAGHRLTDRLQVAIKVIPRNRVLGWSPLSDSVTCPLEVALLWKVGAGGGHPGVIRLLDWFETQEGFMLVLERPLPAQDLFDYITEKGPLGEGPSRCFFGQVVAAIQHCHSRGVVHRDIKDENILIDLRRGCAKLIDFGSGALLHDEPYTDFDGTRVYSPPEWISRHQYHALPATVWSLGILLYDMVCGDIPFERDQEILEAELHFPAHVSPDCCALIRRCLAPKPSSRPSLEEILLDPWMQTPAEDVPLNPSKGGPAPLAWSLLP
Procedure: as §1, with “of PIM2” for “of PIM1”, “0.5 piper” for “0.5 μl per”, “of 8” for “of 40”, “are 5” for “are 2.5”, “nM PIM2, 4” for “nM PIM1, 20”, “ATP, 10” for “ATP, 40”

Pim3 kinase = Pim3 kinase (Homo sapiens (Human), UniProt Q86V86); assay: Pim3 ATP depletion assay; type: biochemical; conditions: 40 μM ATP, 100 μM BAD peptide
Procedure: The activity of PIM3 is measured using a luciferase-luciferin based ATP detection reagent to quantify ATP depletion resulting from kinase-catalyzed phosphoryl transfer to a peptide substrate. Compounds to be tested are dissolved in 100% DMSO and directly distributed into white 384-well plates at 0.5 piper well. […] After 15 minutes, 10 μl of 80 μM ATP in assay buffer is added. Final assay concentrations are 5 nM PIM1, 40 μM ATP, 100 μM BAD peptide and 2.5% DMSO. The reaction is performed until approximately 50% of the ATP is depleted, then stopped by the addition of 20 μl KinaseGlo Plus (Promega Corporation) solution. The stopped reaction is incubated for 10 minutes and the remaining ATP detected via luminescence on the Victor2 (Perkin Elmer).

[1] = tested on: KMS11 (human myeloma cell line); assay: Cell Proliferation Assay; type: cell-based; conditions: KMS-11, 72 h, KMS11 cells, 3 days, Cell Titer-Glow
Procedure: KMS11 (human myeloma cell line), were cultured in IMDM supplemented with 10% FBS, sodium pyruvate and antibiotics. Cells were plated in the same medium at a density of 2000 cells per well into 96 well tissue culture plates, with outside wells vacant, on the day of assay. MM1.s (human myeloma cell line), were cultured in RPMI1640 supplemented with 10% FBS, sodium pyruvate and antibiotics. Cells were plated in the same medium at a density of 5000 cells per well into 96 well tissue culture plates, with outside wells vacant, on the day of assay.
Test compounds supplied in DMSO were diluted into DMSO at 500 times the desired final concentrations before dilution into culture media to 2 times final concentrations. Equal volumes of 2× compounds were added to the cells in 96 well plates and incubated at 37° C. for 3 days.
After 3 days plates were equilibrated to room temperature and equal volume of Cell Titer-Glow Reagent (Promega) was added to the culture wells. The plates were agitated briefly and luminescent signal was measured with luminometer.
Using the procedures for Cell Proliferation Assay described above, the EC50 concentration of compounds of the previous examples were determined in KMS11 cells as shown in the following table.

Sequence of Pim1 kinase (P11309 whole entry): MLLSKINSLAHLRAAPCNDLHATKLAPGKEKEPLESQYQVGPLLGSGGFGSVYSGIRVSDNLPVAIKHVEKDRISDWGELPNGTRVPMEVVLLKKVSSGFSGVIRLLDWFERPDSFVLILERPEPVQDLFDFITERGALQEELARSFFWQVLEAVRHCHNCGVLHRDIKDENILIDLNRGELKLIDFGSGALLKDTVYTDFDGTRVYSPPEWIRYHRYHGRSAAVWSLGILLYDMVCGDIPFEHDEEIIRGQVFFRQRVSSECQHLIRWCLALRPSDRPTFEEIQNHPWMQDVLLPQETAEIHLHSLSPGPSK

## Nc1sc(-c2c(F)cccc2F)nc1C(=O)Nc1cnccc1[C@@H]1CC[C@H](O)[C@H](N)C1 (stereo in doubt) [Example 38, 5-amino-N-(4-(3-amino-4-hydroxycyclohexyl)pyridin-3-yl)-2-(2,6-difluorophenyl)thiazole-4-carboxamide]
Pim1 kinase
  IC50: 1 nM
Pim2 kinase
  IC50: 4 nM
Pim3 kinase
  IC50: 3 nM
[1]
  EC50: 1890 nM

## N[C@H]1CCCN(c2ccncc2NC(=O)c2csc(-c3c(F)cccc3F)n2)C1 [Example 1, (S)-N-(4-(3-aminopiperidin-1-yl)pyridin-3-yl)-2-(2,6-difluorophenyl)thiazole-4-carboxamide]
[1]
  EC50: 1170 nM

## N[C@@H]1CN(c2ccncc2NC(=O)c2csc(-c3c(F)cccc3F)n2)CC[C@H]1O [Example 2, N-(4-((3R,4R)-3-amino-4-hydroxypiperidin-1-yl)pyridin-3-yl)-2-(2,6-difluorophenyl)thiazole-4-carboxamide]
Pim1 kinase
  IC50: 2 nM
Pim2 kinase
  IC50: 11 nM
Pim3 kinase
  IC50: 4 nM
[1]
  EC50: 1570 nM

## N[C@@H]1CN(c2ccncc2NC(=O)c2csc(-c3c(F)cccc3F)n2)CC[C@@H]1O [Example 6, N-(4-((3R,4S)-3-amino-4-hydroxypiperidin-1-yl)pyridin-3-yl)-2-(2,6-difluorophenyl)thiazole-4-carboxamide]
Pim1 kinase
  IC50: 1 nM
Pim2 kinase
  IC50: 3 nM
Pim3 kinase
  IC50: 1 nM
[1]
  EC50: 410 nM

## CO[C@@H]1C[C@H](N)CN(c2ccncc2NC(=O)c2csc(-c3c(F)cccc3F)n2)C1 [Example 8, N-(4-((3S,5R)-3-amino-5-methoxypiperidin-1-yl)pyridin-3-yl)-2-(2,6-difluorophenyl)thiazole-4-carboxamide]
Pim1 kinase
  IC50: 21 nM
Pim2 kinase
  IC50: 46 nM
Pim3 kinase
  IC50: 35 nM
[1]
  EC50: 4700 nM

## N[C@H]1C[C@@H](F)CN(c2ccncc2NC(=O)c2csc(-c3c(F)cccc3F)n2)C1 [Example 11, N-(4-((3S,5R)-3-amino-5-fluoropiperidin-1-yl)pyridin-3-yl)-2-(2,6-difluorophenyl)thiazole-4-carboxamide]
Pim1 kinase
  IC50: 4 nM
Pim2 kinase
  IC50: 55 nM
Pim3 kinase
  IC50: 8 nM
[1]
  EC50: 6100 nM

## CC1CC(N)CN(c2ccncc2NC(=O)c2csc(-c3c(F)cccc3F)n2)C1 (centres unmarked) [Example 14, N-(4-(3-amino-5-methylpiperidin-1-yl)pyridin-3-yl)-2-(2,6-difluorophenyl)thiazole-4-carboxamide]
[1]
  EC50: 830 nM

## NC1CC(C(F)(F)F)CN(c2ccncc2NC(=O)c2csc(-c3c(F)cccc3F)n2)C1 (centres unmarked) [Example 15, N-(4-(3-amino-5-(trifluoromethyl)piperidin-1-yl)pyridin-3-yl)-2-(2,6-difluorophenyl)thiazole-4-carboxamide]
Pim1 kinase
  IC50: 1 nM
Pim2 kinase
  IC50: 3 nM
Pim3 kinase
  IC50: 4 nM
[1]
  EC50: 310 nM

## NC1CC(CF)CN(c2ccncc2NC(=O)c2csc(-c3c(F)cccc3F)n2)C1 (centres unmarked) [Example 16, N-(4-(3-amino-5-(fluoromethyl)piperidin-1-yl)pyridin-3-yl)-2-(2,6-difluorophenyl)thiazole-4-carboxamide]
Pim1 kinase
  IC50: 1 nM
Pim2 kinase
  IC50: 3 nM
Pim3 kinase
  IC50: 4 nM
[1]
  EC50: 2380 nM

## C[C@@H]1C[C@H](N)CN(c2ccncc2NC(=O)c2csc(-c3c(F)cccc3F)n2)C1 [Example 28, N-(4-((3S,5R)-3-amino-5-methylpiperidin-1-yl)pyridin-3-yl)-2-(2,6-difluoropheenyl)thiazole-4-carboxamide]
[1]
  EC50: 400 nM

## Nc1sc(-c2c(F)cccc2F)nc1C(=O)Nc1cnccc1N1CCC[C@H](N)C1 [Example 29, (S)-5-amino-N-(4-(3-aminopiperidin-1-yl)pyridin-3-yl)-2-(2,6-difluorophenyl)thiazole-4-carboxamide]
[1]
  EC50: 40 nM

## Nc1sc(-c2c(F)cccc2F)nc1C(=O)Nc1cnccc1[C@@H]1CCC[C@H](N)C1 [Example 33, 5-amino-N-(4-((1R,3S)-3-aminocyclohexyl)pyridin-3-yl)-2-(2,6-difluorophenyl)thiazole-4-carboxamide]
Pim1 kinase
  IC50: 1 nM
[1]
  EC50: 430 nM

## N[C@H]1CCC[C@@H](c2ccncc2NC(=O)c2csc(-c3c(F)cccc3F)n2)C1 [Example 34, N-(4-((1R,3S)-3-aminocyclohexyl)pyridin-3-yl)-2-(2,6-difluorophenyl)thiazole-4-carboxamide]
[1]
  EC50: 5020 nM

## C[C@@H]1CN(c2ccncc2NC(=O)c2csc(-c3c(F)cccc3F)n2)C[C@@H](N)[C@H]1O [Example 35, N-(4-((3R,4S,5R)-3-amino-4-hydroxy-5-methylpiperidin-1-yl)pyridin-3-yl)-2-(2,6-difluorophenyl)thiazole-4-carboxamide]
Pim1 kinase
  IC50: 9 nM
Pim2 kinase
  IC50: 125 nM
Pim3 kinase
  IC50: 9 nM

## C[C@@H]1C[C@H](N)C[C@H](c2ccncc2NC(=O)c2csc(C3CCCCC3)n2)C1 [Example 40, N-(4-((1R,3S,5S)-3-amino-5-methylcyclohexyl)pyridin-3-yl)-2-cyclohexylthiazole-4-carboxamide]
Pim1 kinase
  IC50: 41 nM
Pim2 kinase
  IC50: 97 nM
Pim3 kinase
  IC50: 109 nM

## C[C@H]1C[C@@H](c2ccncc2NC(=O)c2csc(C3CCCCC3)n2)C[C@@H](N)[C@@H]1O [Example 42, N-(4-((1R,3R,4R,5S)-3-amino-4-hydroxy-5-methylcyclohexyl)pyridin-3-yl)-2-cyclohexylthiazole-4-carboxamide]
Pim1 kinase
  IC50: 146 nM
Pim2 kinase
  IC50: 250 nM
Pim3 kinase
  IC50: 215 nM

## C[C@H]1C[C@@H](c2ccncc2NC(=O)c2csc(-c3c(F)cccc3F)n2)C[C@@H](N)[C@H]1O [Example 43, N-(4-((1R,3R,4S,5S)-3-amino-4-hydroxy-5-methylcyclohexyl)pyridin-3-yl)-2-(2,6-difluorophenyl)thiazole-4-carboxamide (and enantiomer)]
Pim1 kinase
  IC50: 5 nM
Pim2 kinase
  IC50: 46 nM
Pim3 kinase
  IC50: 15 nM

## C[C@@H]1C[C@H](N)C[C@H](c2ccncc2NC(=O)c2csc(-c3c(F)cccc3F)n2)C1 [Example 45, N-(4-((1R,3S,5S)-3-amino-5-methylcyclohexyl)pyridin-3-yl)-2-(2,6-difluorophenyl)thhiazole-4-carboxamide]
Pim1 kinase
  IC50: 1 nM
Pim3 kinase
  IC50: 3 nM
[1]
  EC50: 920 nM

## CC1(C)C[C@H](N)C[C@H](c2ccncc2NC(=O)c2csc(-c3c(F)cccc3F)n2)C1 [Example 46, N-(4-((1R,5R)-5-amino-3,3-dimethylcyclohexyl)pyridin-3-yl)-2-(2,6-difluorophenyl)thiazole-4-carboxamide]
Pim1 kinase
  IC50: 1 nM
Pim2 kinase
  IC50: 16 nM
Pim3 kinase
  IC50: 3 nM

## N[C@H]1CCCN(c2ccncc2NC(=O)c2csc(-c3ccccc3)n2)C1 [Example 48, (S)-N-(4-(3-aminopiperidin-1-yl)pyridin-3-yl)-2-phenylthiazole-4-carboxamide]
Pim1 kinase
  IC50: 2 nM
Pim2 kinase
  IC50: 17.7 nM
Pim3 kinase
  IC50: 2.3 nM

## N[C@H]1CCCN(c2ccncc2NC(=O)c2csc(-c3ccccc3F)n2)C1 [Example 49, (S)-N-(4-(3-aminopiperidin-1-yl)pyridin-3-yl)-2-(2-fluorophenyl)thiazole-4-carboxamide]
Pim1 kinase
  IC50: 1.9 nM
Pim2 kinase
  IC50: 9.9 nM
Pim3 kinase
  IC50: 4.2 nM

## CC(C)NC(=O)c1ccc(F)c(-c2nc(C(=O)Nc3cnccc3N3CCC[C@H](N)C3)cs2)c1 [Example 50, (S)-N-(4-(3-aminopiperidin-1-yl)pyridin-3-yl)-2-(2-fluoro-5-(isopropylcarbamoyl)phenyl)thiazole-4-carboxamide]
Pim1 kinase
  IC50: 3.2 nM
Pim2 kinase
  IC50: 83.8 nM
Pim3 kinase
  IC50: 8.3 nM

## CC(C)Oc1ccc(F)c(-c2nc(C(=O)Nc3cnccc3[C@@H]3C[C@H](C)C[C@H](N)C3)cs2)c1F [Example 53]
Pim1 kinase
  IC50: 1 nM
Pim2 kinase
  IC50: 20 nM
Pim3 kinase
  IC50: 3 nM
